Where two headings read alike, the source gives them in different places.
Test system: WEEV replicon
Assay: microbe, parasite or virus in culture
Format: cell-based, Western equine encephalitis virus
Settings: Western equine encephalitis virus; for activity at 2 µM: read-out: Activity (% control LUC) 2 μM; for activity at 10 µM: read-out: Activity (% control LUC) 10 μM
[1] = read-out: Activity (% control LUC) 50 μM
[2] = read-out: 50 μM (% control) Luc

Compound	IC50 (read-out: Activity IC50 (μM)) [µM]	activity at 2 µM [%]	activity at 10 µM [%]	activity at 50 µM [1] [%]	IC50 [µM]	activity at 50 µM [2] [%]
O=C(c1cc2ccccc2n1Cc1ccc(Cl)cc1)N1CCC(C(=O)N2CCCC2)CC1 [CCG 102514, (1-(4-chlorobenzyl)-1H-indol-2-yl)(4-(pyrrolidine-1-carbonyl)piperidin-1-yl)methanone]	23.8	83.1	66.4	10.5	–	–
Cc1ccc(CCNC(=O)C2CCN(C(=O)c3cc4ccccc4n3Cc3ccc(Cl)cc3)CC2)cc1 [CCG 102518, 1-(1-(4-chlorobenzyl)-1H-indole-2-carbonyl)-N-(4-methylphenethyl)piperidine-4-carboxamide]	4.2	83	33.8	32.2	–	–
O=C(NCc1ccccc1)C1CCN(C(=O)c2cc3ccccc3n2Cc2ccc(F)cc2)CC1 [CCG 203880, N-benzyl-1-(1-(4-fluorobenzyl)-1H-indole-2-carbonyl)piperidine-4-carboxamide]	25	134	121	67	–	–
O=C(c1cc2ccccc2n1Cc1ccc(Cl)cc1)N1CCC(C(=O)N2CCCCC2)CC1 [CCG 203928, (1-(4-chlorobenzyl)-1H-indol-2-yl)(4-(piperidine-1-carbonyl)piperidin-1-yl)methanone]	8.1	95.1	65.4	3.4	–	–
O=C(NCc1ccncc1)C1CCN(C(=O)c2cc3ccccc3n2Cc2ccc(Cl)cc2)CC1 [CCG 203929, 1-(1-(4-chlorobenzyl)-1H-indole-2-carbonyl)-N-(pyridin-4-ylmethyl)piperidine-4-carboxamide]	6.6	99.5	51.8	36.4	–	–
CN(Cc1ccccc1)C(=O)C1CCN(C(=O)c2cc3ccccc3n2Cc2ccc(Cl)cc2)CC1 [CCG 203930, N-benzyl-1-(1-(4-chlorobenzyl)-1H-indole-2-carbonyl)-N-methylpiperidine-4-carboxamide]	18.6	110	59.5	38	–	–
O=C(c1cc2ccccc2n1Cc1ccc(F)cc1)N1CCN(Cc2ccccc2)CC1 [CCG 203942, (4-benzylpiperazin-1-yl)(1-(4-fluorobenzyl)-1H-indol-2-yl)methanone]	12.8	116	73.8	48.9	–	–
O=C(c1cc2ccccc2n1Cc1ccc(F)cc1)N1CCC(C(=O)N2CCCCC2)CC1 [CCG 203945, (1-(4-fluorobenzyl)-1H-indol-2-yl)(4-(piperidine-1-carbonyl)piperidin-1-yl)methanone]	20	85	64.4	21.3	–	–
O=C(c1cc2ccccc2n1Cc1ccc(Cl)cc1)N1CCC(C(=O)N2CCC[C@H]2CO)CC1 [CCG 204021, (S)-(1-(4-chlorobenzyl)-1H-indol-2-yl)(4-(2-(hydroxymethyl)pyrrolidine-1-carbonyl)piperidin-1-yl)methanone]	32.1	87.8	77.9	21.1	–	–
CN(C)C(=O)C1CCN(C(=O)c2cc3ccccc3n2Cc2ccc(Cl)cc2)CC1 [CCG 204022, 1-(1-(4-chlorobenzyl)-1H-indole-2-carbonyl)-N,N-dimethylpiperidine-4-carboxamide]	10.4	87.3	51.9	5.8	–	–
CN1CCN(C(=O)C2CCN(C(=O)c3cc4ccccc4n3Cc3ccc(Cl)cc3)CC2)CC1 [CCG 204023, (1-(4-chlorobenzyl)-1H-indol-2-yl)(4-(4-methylpiperazine-1-carbonyl)piperidin-1-yl)methanone]	21.4	99	67.4	6	–	–
O=C(c1cc2ccccc2n1Cc1ccc(Cl)cc1)N1CCC(C(=O)N2CCOCC2)CC1 [CCG 204024, (1-(4-chlorobenzyl)-1H-indol-2-yl)(4-(morpholine-4-carbonyl)piperidin-1-yl)methanone]	12.3	74.9	47.4	8.3	–	–
Cc1cccc(CNC(=O)C2CCN(C(=O)c3cc4ccccc4n3Cc3ccc(Cl)cc3)CC2)c1 [CCG 204042, 1-(1-(4-chlorobenzyl)-1H-indole-2-carbonyl)-N-(3-methylbenzyl)piperidine-4-carboxamide]	9.8	93.7	59.5	64.4	–	–
O=C(NCc1cccc(Cl)c1)C1CCN(C(=O)c2cc3ccccc3n2Cc2ccc(Cl)cc2)CC1 [CCG 204043, N-(3-chlorobenzyl)-1-(1-(4-chlorobenzyl)-1H-indole-2-carbonyl)piperidine-4-carboxamide]	28.5	78.6	60.9	53.6	–	–
O=C(NCc1ccccc1)C1CCN(C(=O)c2cccn2Cc2ccc(Cl)cc2)CC1 [CCG 204054, N-benzyl-1-(1-(4-chlorobenzyl)-1H-pyrrole-2-carbonyl)piperidine-4-carboxamide]	54.6	110	108	74.5	–	–
O=C(c1cc2ccccc2n1Cc1ccc(F)cc1)N1CCC(CN2CCCCC2)CC1 [CCG 204055, (1-(4-fluorobenzyl)-1H-indol-2-yl)(4-(piperidin-1-ylmethyl)piperidin-1-yl)methanone]	13.3	89.7	69.9	40	–	–
O=C(c1cc2ccccc2n1Cc1ccc(F)cc1)N1CCC(C(O)c2ccccc2)CC1 (stereo not shown) [CCG 204056, (1-(4-fluorobenzyl)-1H-indol-2-yl)(4-(hydroxy(phenyl)methyl)piperidin-1-yl)methanone]	16	99.3	71.7	8.3	–	–
COC(=O)c1cccc(NC(=O)C2CCN(C(=O)c3cc4ccccc4n3Cc3ccc(Cl)cc3)CC2)c1 [CCG 204057, Methyl 3-(1-(1-(4-chlorobenzyl)-1H-indole-2-carbonyl)piperidine-4-carboxamido)benzoate]	35.6	87.9	54	50.9	–	–
CN(Cc1ccccc1)C(=O)C1CCN(C(=O)c2cc3ccccc3[nH]2)CC1 [CCG 205400, N-benzyl-1-(1H-indole-2-carbonyl)-N-methylpiperidine-4-carboxamide]	–	–	–	–	27.7	29.1
CN(Cc1ccccc1)C(=O)C1CCN(C(=O)c2cc3ccccc3n2Cc2ccccc2)CC1 [CCG 205404, N-benzyl-1-(1-benzyl-1H-indole-2-carbonyl)-N-methylpiperidine-4-carboxamide]	–	–	–	–	16.9	20.5
O=C(NCc1cccnc1)C1CCN(C(=O)c2cc3ccccc3n2Cc2ccc(Cl)cc2)CC1 [CCG 205422, 1-(1-(4-chlorobenzyl)-1H-indole-2-carbonyl)-N-(pyridin-3-ylmethyl)piperidine-4-carboxamide]	–	–	–	–	11.4	7.05
CN(Cc1ccccc1)C(=O)C1CCN(C(=O)c2cc3ccccc3n2C)CC1 [CCG 205428, N-benzyl-N-methyl-1-(1-methyl-1H-indole-2-carbonyl)piperidine-4-carboxamide]	–	–	–	–	–	77.2
